Patent US20090048301A1 (IMCLONE SYSTEMS INCORPORATED, priority 2003, published 2009)

Key:
[1] = test system: tumor vasculature; details: Cancer Research 59, 1626 (1999); cited from earlier work
[2] = test system: bovine tubulin; assay: In vitro tubulin polymerization assay (turbidity at 340 nm); assay type: biochemical; details: 10 μM compound, 30 minute data point, vs 1% DMSO control
Procedure, shortened: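 Bovine tubulin (97%, <3% MAPs) at 3 mg/ml final in G-PEM pH 7 with 1 mM GTP and 5% glycerol, added cold to compound wells at 37° C (1% DMSO final). A340 read each minute for 30 min; percent inhibition from 30-min point versus DMSO control.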

[3] = test system: A431, human epidermoid carcinoma cells; assay: Cell cycle analysis (FACS), mitotic arrest in G2/M; assay type: cell-based; details: Homo sapiens, A-431, 24 h, read-out: FACS Assay: concentration required to achieve inhibition in FACS assay
Procedure, shortened: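 A431 cells, 500,000/well at treatment, exposed to compounds at 0.01–1 μM final (0.1% DMSO) for 24 h. Ethanol-fixed cells RNase-treated (1 μg/ml, 37° C., 15 min), stained with propidium iodide (50 μg/ml, 30 min, RT). DNA ploidy by flow cytometry; mitotic arrest scored as G2/M accumulation.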

[4] = test system: A431 human cancer cell line; assay: Sulphorhodamine B (SRB) growth inhibition assay; assay type: cell-based; details: A-431, A431 cells, 48 hours, read-out: SRB Assay: μM required to inhibit tumor cell growth by 50% (GI50)
Procedure, shortened: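 A431 cells were seeded at 10,000 cells/well and preincubated 24 h, then exposed for 48 h at 37 °C, 5% CO2 to five log doses from 100 μM to 0.01 μM (final). After TCA fixation, SRB-stained protein was read at 515 nm. Percent growth was set against time-zero and DMSO control OD, and GI50 was taken at the 50% intercept.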

[5] = test system: xenograft models; details: Cancer Research 62, 3113, 2002; cited from earlier work
[6] = Cancer Research 61, 392, 2001; cited from earlier work
[7] = test system: MDR cells; details: Cancer Research 61, 392, 2001; cited from earlier work

SMILES	Tubulin Assay: percent inhibition at 10 μM based on 30 minute data [2] [%]	minimal effective concentration [3] [µM]	GI50 [4] [µM]	further results
COc1ccc(/C=C\c2cc(OC)c(OC)c(OC)c2)cc1OP(=O)(O)O [Combretastatin A-4 phosphate]				effect on tumor vasculature and necrosis in mouse tumor models [1]: change endothelial cell morphology, shut down tumor vasculature, and induce tumor necrosis
CS(=O)(=O)c1ccc(-c2nnc(-c3ccccc3NCc3ccncc3)[nH]2)cc1 [Compound 129]	84	0.1	0.025	
C#Cc1ccc(-c2nnc(-c3ccccc3NCc3ccncc3)[nH]2)cc1 [Compound 131, {2-[5-(4-Ethynyl-phenyl)-4H-[1,2,4]triazol-3-yl]-phenyl}-pyridin-4-ylmethyl-amine]	46	0.1	0.06	
COc1cccc(Nc2nnc(-c3cccnc3Nc3cc(OC)cc(OC)c3)o2)c1 [Compound 176, (3,5-Dimethoxy-phenyl)-{3-[5-(3-methoxy-phenylamino)-[1,3,4]oxadiazol-2-yl]-pyridin-2-yl}-amine]	27	10	40	
COc1cc(Nc2ncccc2-c2nnc(Nc3ccc4c(c3)OCO4)o2)cc(OC)c1 [Compound 177, {3-[5-(Benzo[1,3]dioxol-5-ylamino)-[1,3,4]oxadiazol-2-yl]-pyridin-2-yl}-(3,5-dimethoxy-phenyl)-amine]	45	0.01	0.04	
c1cnc(NCc2ccc3c(c2)OCO3)c(-c2nnc(Nc3ccc4c(c3)OCO4)o2)c1 [Compound 181, {3-[5-(Benzo[1,3]dioxol-5-ylamino)-[1,3,4]oxadiazol-2-yl]-pyridin-2-yl}-benzo[1,3]dioxol-5-ylmethyl-amine]	76	1	0.3	
COc1cc(CNc2ncccc2-c2nnc(Nc3ccc4c(c3)OCO4)o2)cc(OC)c1 [Compound 182, {3-[5-(Benzo[1,3]dioxol-5-ylamino)-[1,3,4]oxadiazol-2-yl]-pyridin-2-yl}-(3,5-dimethoxy-benzyl)-amine]	84	1	0.2	
COc1cc(CNc2ncccc2-c2nnc(Nc3ccc(OC)c(OC)c3)o2)cc(OC)c1 [Compound 183, (3,5-Dimethoxy-benzyl)-{3-[5-(3,4-dimethoxy-phenylamino)-[1,3,4]oxadiazol-2-yl]-pyridin-2-yl}-amine]	50	0.1	6	
c1cncc(CNc2ncccc2-c2nnc(Nc3ccc4c(c3)OCO4)o2)c1 [Compound 189, {3-[5-(Benzo[1,3]dioxol-5-ylamino)-[1,3,4]oxadiazol-2-yl]-pyridin-2-yl}-pyridin-3-ylmethyl-amine]	89	0.1	0.6	
O=C1CCCN1CCCNc1ncccc1-c1nnc(Nc2ccc3c(c2)OCCO3)o1 [Compound 192, 1-(3-{3-[5-(2,3-Dihydro-benzo[1,4]dioxin-6-ylamino)-[1,3,4]oxadiazol-2-yl]-pyridin-2-ylamino}-propyl)-pyrrolidin-2-one]	85	0.1	0.01	
COc1cc(Nc2ncccc2-c2nnc(Nc3ccc4c(c3)OCCO4)o2)cc(OC)c1 [Compound 193, {3-[5-(2,3-Dihydro-benzo[1,4]dioxin-6-ylamino)-[1,3,4]oxadiazol-2-yl]-pyridin-2-yl}-(3,5-dimethoxy-phenyl)-amine]	69	0.01	0.01	
c1ccc(-c2nnc(Nc3ccc4c(c3)OCCO4)o2)c(NCc2ccncc2)c1 [Compound 215, (2,3-Dihydro-benzo[1,4]dioxin-6-yl)-(5-{2-[(pyridin-4-ylmethyl)-amino]-phenyl}-[1,3,4]oxadiazol-2-yl)-amine]	100	0.01	10	
c1ccc(-c2nnc(Nc3ccc4c(c3)OCCO4)o2)c(NCc2cn[nH]c2)c1 [Compound 223, (2,3-Dihydro-benzo[1,4]dioxin-6-yl)-(5-{2-[(1H-pyrazol-4-ylmethyl)-amino]-phenyl}-[1,3,4]oxadiazol-2-yl)-amine]	84	0.1	1.5	
COc1cccc(Nc2nnc(-c3ccccc3NCc3ccncc3)o2)c1 [Compound 228, (3-Methoxy-phenyl)-(5-{2-[(pyridin-4-ylmethyl)-amino]-phenyl}-[1,3,4]oxadiazol-2-yl)-amine]	57	10	2	
COc1ccc2[nH]c(C(=O)c3ccccc3)cc2c1 [Compound D64131]				efficacy in xenograft models [5]: efficacious in xenograft models; oral activity [5]: orally active; toxicity [5]: no signs of toxicity
O=C(Nc1ccncc1)C(=O)c1cn(Cc2ccc(Cl)cc2)c2ccccc12 [Compound D-24851]				antitumor activity in vivo [6]: exert antitumor activity in vivo; neurotoxicity [6]: lacks neurotoxicity; efficacy toward MDR cells [7]: shows efficacy toward MDR cells
